From ChEMBL document CHEMBL5614367, “Hydroxamic acid hybrids: Histone deacetylase inhibitors with anticancer therapeutic potency” (Eur J Med Chem, 2023) come the findings set out here.

Experiment [1] deals with K562. Nature of the experiment: Antiproliferative activity against human K562 cells measured after 72 hrs by CCK-8 assay. The format is functional, cell-based. As to conditions: K562, 72 h. For orientation: Formazan colour is commonly taken as a measure of viable cells.
The subject of a further experiment is U-266. As to the kind of experiment: Antiproliferative activity against human U-266 cells measured after 72 hrs by CCK-8 assay. In kind it is functional, cell-based. As to conditions: U-266, 72 h, pooled result: one value given for 9 cell lines, strains, targets or settings.
The target of the next experiment is Histone deacetylase 2 (Homo sapiens, UniProt Q92769). Nature of the experiment: Inhibition of HDAC2 (unknown origin).
A further experiment addresses T1, Histone deacetylase 8 (Homo sapiens, UniProt Q9BY41).
T1 sequence (Q9BY41 whole entry): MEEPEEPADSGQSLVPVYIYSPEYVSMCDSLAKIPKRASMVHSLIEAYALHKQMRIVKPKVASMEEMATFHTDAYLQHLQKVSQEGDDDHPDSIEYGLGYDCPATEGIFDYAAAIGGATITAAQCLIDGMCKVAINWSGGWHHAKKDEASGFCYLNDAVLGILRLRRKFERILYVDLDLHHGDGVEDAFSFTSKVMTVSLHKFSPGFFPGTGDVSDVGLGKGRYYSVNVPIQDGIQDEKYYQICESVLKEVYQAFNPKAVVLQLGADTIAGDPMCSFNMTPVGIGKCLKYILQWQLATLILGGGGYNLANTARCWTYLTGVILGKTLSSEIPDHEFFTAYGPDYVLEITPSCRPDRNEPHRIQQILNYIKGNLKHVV
Nature of the experiment: Inhibition of HDAC8 (unknown origin).

Experiment [2] concerns K562. As to the kind of experiment: cells. The format is functional, cell-based. The conditions noted are these: Homo sapiens, K562, 72 h; pooled result: one value given for 11 cell lines, strains, targets or settings.
Experiment [3] deals with HCT-116. As to the kind of experiment: Antitumor activity against human HCT-116 cells xenografted in mouse assessed as tumor weight inhibition at 30 to 150 mg/kg, ip relative to control. The format is functional. As to conditions: dose 30-150 mg/kg. A general note: In xenograft studies the graft and the host belong to different species.
The next experiment concerns HGC-27. As to the kind of experiment: Antitumor activity against human HGC-27 cells xenografted in mouse assessed as tumor weight inhibition at 30 to 150 mg/kg, ip relative to control. In kind it is functional. The conditions noted are these: dose 30-150 mg/kg.
Another experiment has as its system EL4. Nature of the experiment: Antitumor activity against mouse EL4 cells implanted in mouse assessed as tumor weight inhibition at 15 mg/kg, ip measured after 12 days relative to control. The format is functional. As to conditions: EL4, 288 h, time 12 day.
Another experiment has as its system A20. As to the kind of experiment: Antitumor activity against mouse A20 cells implanted in mouse assessed as tumor weight inhibition at 15 mg/kg, ip measured after 12 days relative to control. As to conditions: A20, 288 h, time 12 day. The format is functional.
Another experiment has as its system SW-620. Nature of the experiment: Antiproliferative activity against human SW620 cells incubated for 48 hrs by colorimetric method. The format is functional, cell-based. As to conditions: SW-620, 48 h.
The subject of the next experiment is PC-3. Nature of the experiment: Antiproliferative activity against human PC-3 cells incubated for 48 hrs by colorimetric method. The format is functional, cell-based. As to conditions: PC-3, 48 h.
The test system of the next experiment is NCI-H23. Nature of the experiment: Antiproliferative activity against human NCI-H23 cells incubated for 48 hrs by colorimetric method. The format is functional, cell-based. The conditions noted are these: NCI-H23, 48 h.
The next experiment relates to SAOS-2. Nature of the experiment: Antiproliferative activity against human SAOS-2 cells. In kind it is functional.
A further experiment concerns HOS. As to the kind of experiment: Antiproliferative activity against human HOS cells. The format is functional.
For the next experiment, the system named is 143B. As to the kind of experiment: Antiproliferative activity against human 143B cells. In kind it is functional.
Experiment [4] concerns HCT-116. As to the kind of experiment: Antiproliferative activity against human HCT-116 cells measured after 72 hrs by MTT assay. The format is functional, cell-based. The conditions noted are these: HCT-116, 72 h.
The next experiment relates to MCF7. As to the kind of experiment: Antiproliferative activity against human MCF7 cells measured after 72 hrs by MTT assay. In kind it is functional, cell-based. As to conditions: MCF7, 72 h.
The next experiment concerns A549. As to the kind of experiment: Antiproliferative activity against human A549 cells measured after 72 hrs by MTT assay. As to conditions: A549, 72 h. The format is functional, cell-based.
The target in another experiment is Histone deacetylase 1 (Homo sapiens, UniProt Q13547). As to the kind of experiment: Inhibition of HDAC1 (unknown origin) using Ac-peptide as substrate pretreated for 15 mins followed by substrate addition and measured after 60 mins.
Chain of Histone deacetylase 1 (Q13547 whole entry): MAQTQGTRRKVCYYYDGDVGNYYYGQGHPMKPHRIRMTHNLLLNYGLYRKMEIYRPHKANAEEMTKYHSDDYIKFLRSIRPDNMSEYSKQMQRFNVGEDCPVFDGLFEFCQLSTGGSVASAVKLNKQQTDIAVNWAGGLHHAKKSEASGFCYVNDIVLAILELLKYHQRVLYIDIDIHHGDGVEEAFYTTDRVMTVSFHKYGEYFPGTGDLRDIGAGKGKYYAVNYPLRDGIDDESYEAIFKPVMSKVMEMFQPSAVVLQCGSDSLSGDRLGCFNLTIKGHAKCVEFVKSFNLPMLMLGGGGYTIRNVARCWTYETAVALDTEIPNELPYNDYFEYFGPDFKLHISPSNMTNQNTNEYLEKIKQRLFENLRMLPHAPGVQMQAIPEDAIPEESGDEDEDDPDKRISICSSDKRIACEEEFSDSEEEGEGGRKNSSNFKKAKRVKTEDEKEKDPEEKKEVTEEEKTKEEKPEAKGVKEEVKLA

Chain of Histone deacetylase 2 (Q92769 whole entry): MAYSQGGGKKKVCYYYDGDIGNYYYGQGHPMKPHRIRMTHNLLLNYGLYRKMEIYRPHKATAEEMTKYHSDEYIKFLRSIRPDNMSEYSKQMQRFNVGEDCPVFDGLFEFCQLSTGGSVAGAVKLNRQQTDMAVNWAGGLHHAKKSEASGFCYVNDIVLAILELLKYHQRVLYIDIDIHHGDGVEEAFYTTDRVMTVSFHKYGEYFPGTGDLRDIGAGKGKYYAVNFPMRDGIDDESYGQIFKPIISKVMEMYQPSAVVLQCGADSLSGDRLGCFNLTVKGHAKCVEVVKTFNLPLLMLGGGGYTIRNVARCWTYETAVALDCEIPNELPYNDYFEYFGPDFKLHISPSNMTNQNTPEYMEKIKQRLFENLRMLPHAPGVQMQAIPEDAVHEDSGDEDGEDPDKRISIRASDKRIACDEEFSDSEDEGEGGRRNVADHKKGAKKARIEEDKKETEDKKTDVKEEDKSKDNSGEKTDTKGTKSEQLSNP

As for `O=C(NO)c1ccc(N2CCN(C(=O)c3cc(-c4ccc(-c5ccccc5)cc4)nc4ccccc34)CC2)cc1`, the IC50 in the experiment with K562 [1] and with U-266 was 1.08 µM each time.
For the compound `COc1ncc(-c2cc(OCCCCCCC(=O)NO)c3ncnc(C)c3c2)cc1F`, the IC50 (usually the concentration needed to halve the response being measured) came to 0.0014 µM at Histone deacetylase 2, 0.0014 µM against Histone deacetylase 8 and 0.023 µM in the experiment with K562 [2]. Also, the “inhibition (INH)” value is given as 45.8% with HCT-116 [3] and 62.6% in the experiment on HGC-27. The results for the inhibition in vivo at 15 mg/kg with EL4 and with A20 were 78.1% and 60%, respectively.
With `O=C(/C=C/c1cccc(S(=O)(=O)Nc2ccccc2)c1)NO` [BELINOSTAT], the IC50 in the experiment on SW-620, in the experiment with PC-3 and in the experiment on NCI-H23 was 2.53 µM in each case. Besides, the GI50 in the experiment with SAOS-2, in the experiment on HOS and in the experiment on 143B was 3.3 µM in each case.
`COc1cc2c(Oc3ccc(NC(=O)C4CCN(c5ccc(F)cc5)C4=O)cc3)ccnc2cc1OCCCCCCC(=O)NO` (centres undefined): the IC50 was 0.28 µM in the experiment with HCT-116 [4], 0.28 µM in the experiment with MCF7, 0.28 µM in the experiment with A549 and 0.027 µM at Histone deacetylase 1.
